Reference: ChEMBL document CHEMBL1201862, “PubChem BioAssay data set” (2004)
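Five concentrations, 48 hours, 96-well plates. GI50 is the concentration that inhibits growth by half.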 The source made the active and inactive calls. Rule as the data show it: active = GI50 up to about 1.1 µM and inactive = higher.

How the values were obtained:
Assay in all cases: NCI tumour cell line growth inhibition, 48 h
NCI/ADR-RES = system: NCI/ADR-RES
NCI-H460 = system: NCI-H460
RXF 393 = system: RXF 393
MDA-MB-231 = system: MDA-MB-231
SF-268 = system: SF-268
CCRF-CEM = system: CCRF-CEM
SW-620 = system: SW-620
K562 = system: K562
HOP-92 = system: HOP-92
SNB-75 = system: SNB-75
SN12C = system: SN12C
CAKI-1 = system: CAKI-1
ACHN = system: ACHN
DU-145 = system: DU-145
MOLT-4 = system: MOLT-4
MDA-N = system: MDA-N
SF-539 = system: SF-539
MDA-MB-435 = system: MDA-MB-435
RPMI-8226 = system: RPMI-8226

SMILES	GI50 (NCI/ADR-RES)	GI50 (NCI-H460)	GI50 (RXF 393)	GI50 (MDA-MB-231)	GI50 (SF-268)	GI50 (CCRF-CEM)	GI50 (SW-620)	GI50 (K562)	GI50 (HOP-92)	GI50 (SNB-75)	GI50 (SN12C)	GI50 (CAKI-1)	GI50 (ACHN)	GI50 (DU-145)	GI50 (MOLT-4)	GI50 (MDA-N)	GI50 (SF-539)	GI50 (MDA-MB-435)	GI50 (RPMI-8226)
C/C=C/C[C@@H](C)C(=O)C1C(=O)N[C@@H](C(C)C)C(=O)N(C)CC(=O)N(C)[C@@H](CC(C)C)C(=O)N[C@@H](C(C)C)C(=O)N(C)[C@@H](CC(C)C)C(=O)N[C@@H](C)C(=O)N[C@@H](C)C(=O)N(C)[C@@H](CC(C)C)C(=O)N(C)[C@@H](CC(C)C)C(=O)N(C)[C@@H](C(C)C)C(=O)N1C (stereo not given in full)	2.74 µM (inactive)	6.01 µM (inactive)	3.03 µM (inactive)	6.17 µM (inactive)	7.89 µM (inactive)	4.06 µM (inactive)	5.24 µM (inactive)	4.45 µM (inactive)	7.26 µM (inactive)	4.98 µM (inactive)	5.58 µM (inactive)	12.8 µM (inactive)	4.4 µM (inactive)	4.06 µM (inactive)	2.35 µM (inactive)	2.39 µM (inactive)	4.23 µM (inactive)	3.35 µM (inactive)	
CCCCC(=O)/C=c1/cc(C)[nH]c2cccc3cnn1c32	> 100 µM (inactive)			> 100 µM (inactive)	> 100 µM (inactive)	> 100 µM (inactive)	> 100 µM (inactive)		68.9 µM (inactive)		> 100 µM (inactive)	> 100 µM (inactive)	> 100 µM (inactive)	> 100 µM (inactive)	> 100 µM (inactive)	> 100 µM (inactive)	> 100 µM (inactive)	64 µM (inactive)	61.9 µM (inactive)
CC1(C)CC(=O)C(=CNc2nc(-c3ccccc3)cs2)C(=O)C1	34.4 µM (inactive)	30.7 µM (inactive)		34.8 µM (inactive)			31.4 µM (inactive)		71 µM (inactive)	33.7 µM (inactive)	39.2 µM (inactive)		40.5 µM (inactive)	57 µM (inactive)	32.4 µM (inactive)	30.1 µM (inactive)	26.4 µM (inactive)	24.9 µM (inactive)	
O=C(Nc1ccc(S(=O)(=O)Nc2ncccn2)cc1)c1c2ccccc2nc2ccccc12	> 100 µM (inactive)	> 100 µM (inactive)		> 100 µM (inactive)	> 100 µM (inactive)	> 10 µM (inactive)	> 100 µM (inactive)	> 100 µM (inactive)	> 100 µM (inactive)	> 100 µM (inactive)	> 100 µM (inactive)	> 100 µM (inactive)	> 100 µM (inactive)	> 100 µM (inactive)	> 100 µM (inactive)	> 100 µM (inactive)	> 100 µM (inactive)	> 100 µM (inactive)	> 100 µM (inactive)
COc1cccc(-c2nc(-c3cnccn3)n(Cc3ccccc3)n2)c1		> 100 µM (inactive)	25.4 µM (inactive)	> 100 µM (inactive)	> 100 µM (inactive)	> 100 µM (inactive)	> 100 µM (inactive)	> 100 µM (inactive)	26.5 µM (inactive)	24.4 µM (inactive)	> 100 µM (inactive)			> 100 µM (inactive)	> 100 µM (inactive)	> 100 µM (inactive)	85.1 µM (inactive)	> 100 µM (inactive)	> 100 µM (inactive)
CC(C)CC1[C@@H](OCc2ccccc2)COS(=O)(=O)N1Cc1ccccc1 (stereo not given in full)	52.6 µM (inactive)	> 100 µM (inactive)		> 100 µM (inactive)	6.64 µM (inactive)	> 100 µM (inactive)	> 100 µM (inactive)	50.9 µM (inactive)	> 100 µM (inactive)	82 µM (inactive)	> 100 µM (inactive)	> 100 µM (inactive)	> 100 µM (inactive)	> 100 µM (inactive)	73.6 µM (inactive)	> 10 µM (inactive)	> 100 µM (inactive)	44.5 µM (inactive)	31.9 µM (inactive)
O=[N+]([O-])c1ccc(Sc2c3ccccc3nc3ccccc23)cn1	39.5 µM (inactive)	> 72.9 µM (inactive)	31.8 µM (inactive)	18 µM (inactive)	20.8 µM (inactive)	2.39 µM (inactive)	3.88 µM (inactive)	2.49 µM (inactive)	4.28 µM (inactive)	24.9 µM (inactive)	18.7 µM (inactive)	5.61 µM (inactive)	12.2 µM (inactive)	13.5 µM (inactive)	2.19 µM (inactive)	14.3 µM (inactive)	8.77 µM (inactive)	16.7 µM (inactive)	
N=C(N)NS(=O)(=O)c1ccc(NCc2c3ccccc3nc3ccccc23)cc1		0.0371 µM (active)	11.9 µM (inactive)	23 µM (inactive)	0.679 µM (active)	0.0782 µM (active)	1.59 µM (inactive)	2.72 µM (inactive)	0.24 µM (active)	0.608 µM (active)	0.637 µM (active)	4.34 µM (inactive)	1.39 µM (inactive)	1.83 µM (inactive)	0.0308 µM (active)	71.1 µM (inactive)	0.483 µM (active)	32.6 µM (inactive)	2.82 µM (inactive)
COCCOCN(C(=O)C1=CCC2(CC1)OCCO2)c1ccccc1I	> 50 µM (inactive)	> 50 µM (inactive)		> 50 µM (inactive)		> 50 µM (inactive)	> 50 µM (inactive)		> 50 µM (inactive)	> 50 µM (inactive)	> 50 µM (inactive)	> 50 µM (inactive)	> 50 µM (inactive)	> 50 µM (inactive)	> 50 µM (inactive)	> 50 µM (inactive)		> 50 µM (inactive)	> 50 µM (inactive)
C#C[C@]1(O)CC[C@H]2[C@@H]3CCC4=C/C(=N/OCCN(C)C)CC[C@]4(C)[C@H]3CC[C@@]21C	41.7 µM (inactive)	21.8 µM (inactive)		39.9 µM (inactive)	49.5 µM (inactive)	16.3 µM (inactive)	28.1 µM (inactive)	6.82 µM (inactive)	52.8 µM (inactive)	30.1 µM (inactive)	44.3 µM (inactive)	78 µM (inactive)	54.7 µM (inactive)	22.3 µM (inactive)	32.9 µM (inactive)	11.1 µM (inactive)		6.7 µM (inactive)	28.4 µM (inactive)
CCOc1ccc(N/C(=C(/C(Cl)=C(/Cl)Nc2ccccc2)[N+](=O)[O-])n2nnc3ccccc32)cc1	20 µM (inactive)	27 µM (inactive)		24.5 µM (inactive)	18.6 µM (inactive)			28.8 µM (inactive)	16 µM (inactive)	57.1 µM (inactive)	20.8 µM (inactive)	23.5 µM (inactive)	25.8 µM (inactive)	45.9 µM (inactive)	14.8 µM (inactive)	19.8 µM (inactive)		29.4 µM (inactive)	50.7 µM (inactive)
C/C(=C\[Si](C)(C)c1ccco1)C(C)(O)[C@H](C)O (stereo not given in full)	43.7 µM (inactive)	47.5 µM (inactive)		> 100 µM (inactive)	90.2 µM (inactive)	32.9 µM (inactive)	84.9 µM (inactive)	32.3 µM (inactive)	46.1 µM (inactive)		32.7 µM (inactive)	> 100 µM (inactive)	95.3 µM (inactive)	38.4 µM (inactive)	33.4 µM (inactive)	54.6 µM (inactive)	> 100 µM (inactive)	45.3 µM (inactive)	30.8 µM (inactive)
Cc1ccc(-c2cc(-c3ccc(Cl)cc3)nc(/N=C3\C(=O)N(CN4CCOCC4)c4ccccc43)n2)cc1	27.2 µM (inactive)	14 µM (inactive)	16.4 µM (inactive)	33.3 µM (inactive)	30.4 µM (inactive)	14.3 µM (inactive)	17 µM (inactive)	23.1 µM (inactive)	22.5 µM (inactive)	25.4 µM (inactive)	30.8 µM (inactive)	32 µM (inactive)	23.3 µM (inactive)	33.2 µM (inactive)	8.69 µM (inactive)	18.5 µM (inactive)	19.5 µM (inactive)	19 µM (inactive)	
CC(=O)C(C(C)=O)[C@H]1OC(C)(C)O[C@H]1[C@H]1COC(C)(C)O1	28.6 µM (inactive)	32.4 µM (inactive)	36.2 µM (inactive)	28.6 µM (inactive)	63.8 µM (inactive)	36.9 µM (inactive)	56.8 µM (inactive)	34.4 µM (inactive)	80 µM (inactive)	42.2 µM (inactive)	29.6 µM (inactive)	73.6 µM (inactive)	57.5 µM (inactive)	42.1 µM (inactive)	50.8 µM (inactive)	55.3 µM (inactive)	18.7 µM (inactive)	27.7 µM (inactive)	
COc1ccc(N(c2ccc(C#N)cc2)c2ccc(C#N)cc2)cc1		> 100 µM (inactive)		> 100 µM (inactive)	> 100 µM (inactive)	3.07 µM (inactive)	> 100 µM (inactive)		> 100 µM (inactive)	> 100 µM (inactive)	> 100 µM (inactive)	> 100 µM (inactive)	> 100 µM (inactive)	> 100 µM (inactive)	5.2 µM (inactive)	> 100 µM (inactive)	> 100 µM (inactive)	> 100 µM (inactive)	
CC1(C)CCC2=C(O1)c1ccccc1C(=O)C2=O [LAPACHONE]			1.41 µM (inactive)	0.507 µM (active)	0.682 µM (active)	0.908 µM (active)	0.432 µM (active)	0.245 µM (active)	3.15 µM (inactive)	0.358 µM (active)	0.51 µM (active)	1.03 µM (active)		0.64 µM (active)	0.708 µM (active)	0.2 µM (active)	0.463 µM (active)	2.07 µM (inactive)	0.284 µM (active)
